Experiments:
[1] = system: lactic acid induced peripheral circulatory disturbance in rats; test: Rat model of lactic acid induced peripheral circulatory disturbance (lesion score); assay type: in vivo; conditions: for Score of lesion: mean ± S.E.
From the text: Peripheral arterial obstructions including clinical arteriosclerosis obliterans (ASO) are, in common, chronic diseases, which often cause ulcer or necrosis in lower limbs, and lesions are worsened by arterial thrombotic infarcts upstream of the lesions. Therefore, the target of the treatment for the above diseases is to inhibit the progress and to eliminate the ischemic symptoms. Antiplatelet drugs and anticoagulants are often used therefor. […] ID3016511 (Compound 115), which is one of the compounds according to the present invention, is selected as an example and administered daily to a rat model of lactic acid induced peripheral circulatory disturbance used as an animal model of peripheral arterial obstruction to examine the drug's therapeutic effect.
13-week old Wister male rats were used in test groups of 10 rats. Each rat was fixed in a face-up position under anesthesia by 40 mg/kg of intraperitoneally administered pentobarbital sodium. The left femoral region was then incised and 0.1 ml of 5% lactic acid solution was administered into the femoral artery. Adhesives were applied dropwise at the lactic acid administered site for blood stanching. Thereafter, a penicillin G solution was added dropwise to prevent infections and the incised part was sutured. […] The solvent and the test solution were orally administered. Administration was carried out 2 hours before lactic acid administration and, thereafter, twice a day at an interval of at least 7 hours for 13 days repeatedly. […] The positive control material was administered 3 hours before the lactic acid administration, and it was repeatedly orally administered twice a day for 13 days in the same way as the above test compound. The progress of lesion on legs and feet was observed 3, 7, and 14 days after the lactic acid administration and the results were scored from 0 to 4 based on the following criteria:
1: nigrities limited to the tiptoe
2: nigrities reaching toe
Each toe was scored and the sum of scores for each toe was determined as a lesion index. When the damage reached the sole, 5 points were added.
The significant difference between the control group and the test material group was assayed by the non-parametric Dunnet's test. The significant difference between the control group and the positive control material group was assayed by the non-parametric Wilcoxon's test.

[2] = system: ovarian carcinoma cells (SKOV3); test: Inhibitory activity against BrdU incorporation, LPA-stimulated ovarian carcinoma cells; assay type: cell-based, human; conditions: SKOV3, LPA 3 μM, FIG. 2B
Method: (§1) Human brain tumor cells (U87 MG) and ovarian carcinoma cells (SKOV3) suspended in serum-free DMEM were plated on a 96-well plate. 24 hours later, Compound 115 and LPA (3 μM) were added and the mixture was cultured for 16 hours, followed by the BrdU addition. Culture was continued for 3 hours from the addition of BrdU. Thereafter, the incorporation of BrdU into the cells was assayed based on the absorbance at 450 nm using the Cell proliferation ELISA system (RPN250, Amersham LIFE SCIENCE).

[3] = Solubility in water (remark); assay type: physicochemical; conditions: white powder
Human EDG-2/HepG2 cells = test: Inhibitory activity on LPA-accelerated [3H] thymidine incorporation (cell proliferation); assay type: cell-based; conditions: 50% inhibition of LPA-induced increase of [3H] thymidine incorporation
From the text: The human EDG-2 expression plasmid was introduced into HepG2 cells by electroporation. After the introduction, culturing was continued while exchanging selective media every 3 to 4 days, thereby obtaining an expressed colony. Regarding these cells, Ca-influx and cell-proliferation by LPA, level of [^3H] LPA binding and the like were inspected to select a cell line which highly expresses human EDG-2 (human EDG-2/HepG2).
Human EDG-2/HepG2 cells suspended in 10% bovine serum-containing DMEM (Dulbecco's modified eagle medium) were plated on a 96-well plate and, on the next day, the medium was exchanged with serum-free DMEM. 24 hours later, the medium was exchanged with DMEM containing LPA or DMEM containing no LPA, cells were cultured for further 16 hours, and [^3H] thymidine was then added. After culturing for 8 hours subsequent to the addition of [^3H] thymidine, cells were washed with PBS (phosphate-buffered saline), and the amount of [^3H] thymidine incorporated into the cells were assayed by Betaplate filter counter system (Amersham Pharmacia Biotech). The difference between the amount of [^3H] thymidine incorporated in the LPA-added well and the amount of [^3H] thymidine incorporated in the well containing no LPA represents the amount of [^3H] thymidine incorporation accelerated by LPA. […] The test compounds were added immediately before the LPA addition.

human EDG-2 = molecular target: T1, human EDG-2 (Homo sapiens, UniProt Q92633); test: Inhibitory activity on LPA-induced elevation of intracellular Ca2+ level; assay type: cell-based; conditions: 50% inhibition of elevation of intracellular Ca2+ level by LPA, human EDG-2/HepG2 cells, fura-2
T1 construct: cDNA of the cloned human EDG-2 was introduced into pEFneo, which is an animal expression vector; expressed in transfected cells; host or cells: HepG2
Procedure, shortened: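 Stably transfected HepG2 cells loaded with fura-2/AM (45 min, room temperature) in 0.1% BSA HEPES buffer. Test compound added before LPA, and the LPA-evoked intracellular Ca2+ rise measured fluorometrically. IC50 for inhibition derived.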

[4] = system: Human brain tumor cells (U87 MG); test: Inhibitory activity against BrdU incorporation, LPA-stimulated brain tumor cells; assay type: cell-based; conditions: LPA 3 μM, FIG. 2A
Method: as §1

T1 sequence (Q92633 whole entry): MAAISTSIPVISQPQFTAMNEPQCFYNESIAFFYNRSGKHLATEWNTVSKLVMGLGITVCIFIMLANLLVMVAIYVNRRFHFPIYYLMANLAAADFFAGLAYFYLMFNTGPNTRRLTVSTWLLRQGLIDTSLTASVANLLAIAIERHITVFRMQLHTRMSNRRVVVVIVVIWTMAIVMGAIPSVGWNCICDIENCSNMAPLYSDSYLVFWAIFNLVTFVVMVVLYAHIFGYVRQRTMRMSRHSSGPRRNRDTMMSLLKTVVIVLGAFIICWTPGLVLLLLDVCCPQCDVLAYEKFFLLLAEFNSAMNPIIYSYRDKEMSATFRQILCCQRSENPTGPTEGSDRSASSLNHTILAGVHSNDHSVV

Row | IC50 (Human EDG-2/HepG2 cells) [nM] | IC50 (human EDG-2) [µM] | Structure (SMILES) | further results
1 | 10 to 30 | 1 to 3 | COC(=O)CCSCc1ccc(-c2onc(C)c2NC(=O)OC(C)c2ccccc2Cl)cc1 (centres unmarked) [Compound 115, Methyl 3-({4-[4-({[1-(2-chlorophenyl)ethoxy]carbonyl}amino)-3-methyl-5-isoxazolyl]-benzyl}sulfanyl)propanoate] | Score of lesion ([1]; 20 mg/kg twice/day p.o., 3 days after lactic acid injection): 2.6 ± 0.8; Score of lesion ([1]; 20 mg/kg twice/day p.o., 7 days after lactic acid injection): 4.3 ± 1.0; Score of lesion ([1]; 20 mg/kg twice/day p.o., 14 days after lactic acid injection): 6.9 ± 1.4; Score of lesion ([1]; 60 mg/kg twice/day p.o., 7 days after lactic acid injection): 1.9 ± 0.5; Progress of lesions in the feet and legs ([1]; dose of 60 mg/kg): inhibited the progress of lesions; Progress of lesion versus control group ([1]; repeated administration of 20 mg/kg for 14 days): equivalent level of progress with the control group; Concentration at which proliferation (BrdU incorporation) was inhibited in a concentration dependent manner [2]: ≥ 0.3 µM; Solubility in water [3]: poor solubility in water; Concentration at which proliferation (BrdU incorporation) was inhibited in a concentration dependent manner [4]: ≥ 0.3 µM
2 | 1000 to 3000 | 3 to 10 | Cc1noc(-c2ccc(CCl)cc2)c1NC(=O)OC(c1ccccc1)C(F)(F)F (centres unmarked) [Compound 161, 2,2,2-Trifluoro-1-phenylethyl N-{5-[4-(chloromethyl)phenyl]-3-methyl-4-isoxazolyl}-carbamate] | –
3 | 300 to 1000 | 30 to 100 | CCNCc1ccc(-c2onc(C)c2NC(=O)OC(C)c2ccccc2Cl)cc1 (centres unmarked) [Compound 116, 1-(2-Chlorophenyl)ethyl N-(5-{4-[(ethylamino)methyl]phenyl}-3-methyl-4-isoxazolyl)-carbamate] | –
4 | 100 | 10 | CCc1noc(-c2ccc(CSCCC(=O)OC)cc2)c1NC(=O)OC(c1ccccc1)C(F)(F)F (centres unmarked) [Compound 166, Methyl 3-{[4-(3-ethyl-4-{[(2,2,2-trifluoro-1-phenylethoxy)carbonyl]amino}-5-isoxazolyl)-benzyl]sulfanyl}propanoate] | –
5 | 300 to 1000 | 3 to 10 | CC(=O)NCCSCc1ccc(-c2onc(C)c2NC(=O)OC(C)c2ccccc2Cl)cc1 (centres unmarked) [Compound 145, 1-(2-Chlorophenyl)ethyl N-{5-[4-({[2-(acetylamino)ethyl]sulfanyl}methyl)phenyl]-3-methyl-4-isoxazolyl}carbamate] | –
6 | 30 to 100 | 3 to 10 | Cc1noc(-c2ccc(CSCCC(=O)O)cc2)c1NC(=O)OC(c1ccccc1)C(F)(F)F (centres unmarked) [Compound 163, 3-{[4-(3-Methyl-4-{[(2,2,2-trifluoro-1-phenylethoxy)carbonyl]amino}-5-isoxazolyl)benzyl]-sulfanyl}propanoic acid] | –
7 | 1000 to 3000 | 10 to 30 | CCCCCNCc1ccc(-c2onc(C)c2NC(=O)OC(C)c2ccccc2Cl)cc1 (centres unmarked) [Compound 109, 1-(2-Chlorophenyl)ethyl N-(3-methyl-5-{4-[(pentylamino)methyl]phenyl}-4-isoxazolyl)carbamate] | –
8 | 300 to 1000 | 3 | Cc1noc(-c2ccc(CSCCC(=O)O)cc2)c1NC(=O)OC(C)c1ccccc1F (centres unmarked) [Compound 157, 3-({4-[4-({[1-(2-Fluorophenyl)ethoxy]carbonyl}amino)-3-methyl-5-isoxazolyl]benzyl}-sulfanyl)propanoic acid] | –
9 | 3000 | 3 | Cc1noc(-c2ccncc2)c1NC(=O)OC(C)c1ccccc1Cl (centres unmarked) [Compound 62, 1-(2-Chlorophenyl)ethyl N-[3-methyl-5-(4-pyridyl)-4-isoxazolyl]carbamate] | –

More lines, now with the values behind:

Row | Structure (SMILES) | IC50 (Human EDG-2/HepG2 cells) [nM] | IC50 (human EDG-2) [µM] | further results
10 | Cc1noc(-c2cccc(CSCCc3ccccc3)c2)c1NC(=O)OC(C)c1ccccc1Cl (centres unmarked) [Compound 142, 1-(2-Chlorophenyl)ethyl N-(3-methyl-5-{3-[(phenethylsulfanyl)methyl]phenyl}-4-isoxazolyl)-carbamate] | 300 | 3 to 10 | –
11 | CCc1noc(-c2ccc(CSCCC(=O)OC)cc2)c1NC(=O)OC(C)c1ccccc1F (centres unmarked) [Compound 165, Methyl 3-({4-[3-ethyl-4-({[1-(2-fluorophenyl)ethoxy]carbonyl}amino)-5-isoxazolyl]-benzyl}sulfanyl)propanoate] | 100 to 300 | 3 to 10 | –
12 | COCc1cccc(-c2onc(C)c2NC(=O)OC(C)c2ccccc2Cl)c1 (centres unmarked) [Compound 128, 1-(2-Chlorophenyl)ethyl N-{5-[3-(methoxymethyl)phenyl]-3-methyl-4-isoxazolyl}carbamate] | 100 to 300 | 3 to 10 | –
13 | CCOCc1cccc(-c2onc(C)c2NC(=O)OC(C)c2ccccc2Cl)c1 (centres unmarked) [Compound 129, 1-(2-Chlorophenyl)ethyl N-{5-[3-(ethoxymethyl)phenyl]-3-methyl-4-isoxazolyl}carbamate] | 300 to 1000 | 3 to 10 | –
14 | Cc1noc(-c2ccc(CNCCc3ccncc3)cc2)c1NC(=O)OC(C)c1ccccc1Cl (centres unmarked) [Compound 111, 1-(2-Chlorophenyl)ethyl N-{3-methyl-5-[4-({[2-(4-pyridyl)ethyl]amino}methyl)phenyl]-4-isoxazolyl}carbamate] | 1000 to 3000 | 10 to 30 | –
15 | Cc1onc(-c2ccccc2F)c1NC(=O)OC(C)c1ccccc1Cl (centres unmarked) [Compound 20, 1-(2-Chlorophenyl)ethyl N-[3-(2-fluorophenyl)-5-methyl-4-isoxazolyl]carbamate] | 1000 | 3 | –
16 | Cc1noc(-c2ccco2)c1NC(=O)OC(C)c1ccccc1Cl (centres unmarked) [Compound 32, 1-(2-Chlorophenyl)ethyl N-[5-(2-furyl)-3-methyl-4-isoxazolyl]carbamate] | 1000 | 3 | –

Reference: patent publication US6964975B2, “Isoxazole and thiazole compounds and use thereof as medicine” (Kirin Beer Kabushiki Kaisha, priority 2000, dated 2005)
